Data from ChEMBL document CHEMBL3988442, “University of Dundee, Small-Polar-MMV Screening Library” (2021).
Values joined by “and” are separate entries in the source; they are usually repeats but may differ in a detail not shown here. Equal entries are not always repeated.

System: Plasmodium falciparum
Assay: Calibr Malaria Delayed Death Assay SOP
Format: functional, organism-based
Conditions: for IC50: Plasmodium falciparum

| Structure (SMILES) | pIC50 | IC50 |
| --- | --- | --- |
| COCC(O)CN(C)c1ccnc2cc(Br)ccc12 (centres undefined) | 6.091 | 834 nM |
| c1cc(-c2n[nH]cc2-c2ccnc(N3CCCC3)n2)ccn1 | 7.446 | 30.5 nM |
| c1cc(-c2n[nH]cc2-c2ccnc(N3CCCCCC3)n2)ccn1 | 8.34 | 4.12 nM |
| OC[C@@H]1CCCN1c1nccc(-c2c[nH]nc2-c2ccncc2)n1 | 6.195 | 764 nM |
| CC(C)[C@H](CO)Nc1nccc(-c2c[nH]nc2-c2ccncc2)n1 | 5.945 | 1130 nM |
| CNc1cc(C)nc(NC2CCCN(C3Cc4ccccc4C3)C2)n1 (centres undefined) | 6.074 | 775 nM |
| CN(Cc1ccsc1)c1nc(-c2ccccn2)nc2c1CCNCC2 | 6.41 | 399 nM |
| CN(CCO)C[C@@H]1CN(C2CCN(c3ccccc3Cl)CC2)C[C@@H]1CO | 6.408 | 316 nM |
| CN(CCO)Cc1cc(Cl)ccc1OCC(O)CN1CCCCCC1 (centres undefined) | 6.095 | 765 nM |
| Oc1cccc2ccc(CN3CCC4(CCNCC4)C3)nc12 | 6.257 | 736 nM |
| Cn1cc(CN2CCCC(CCc3ccccc3C(F)(F)F)C2)cn1 (centres undefined) | 6.083 | 726 nM |
| CN(Cc1ccoc1)C(=O)C1(Oc2ccc(Cl)cc2)CCNCC1 | 6.021 | 977 nM |
| Cn1nc(CN2CCCCC(N)C2)c2c(Cl)cccc21 (centres undefined) | 6.151 | 800 nM |
| Cc1ncc(CN(C)C2CCCN(CCc3ccccc3)C2)n1C (centres undefined) | 6.013 | 783 nM |
| COc1cccc(CN2CC(=O)N(c3ccccc3C)CC2C)c1OC (centres undefined) | 5.928 | 1420 nM |
| CC(C)=CCN1CCC2(CC1)c1ccccc1[C@@H](N1CCSCC1)[C@@H]2O | 5.994 | 991 nM |
| CCC[C@H]1CN(S(=O)(=O)c2ccc(-c3c(C)noc3C)s2)C[C@@H]1N | 6.179 | 798 nM |
| c1ccc(C2CN(C3CC3)CC3(CCN(Cc4ncc[nH]4)CC3)C2)cc1 (centres undefined) | 6.233 and 5.873 |  |
| CCCOc1ccc2ccccc2c1CN1CC[C@@]2(O)CCNC[C@H]2C1 | 6.043 | 924 nM |
| Cn1cc(CN2CCCC(CCc3ccc(F)cc3)C2)cn1 (centres undefined) | 5.962 | 1060 nM |
| CCN1CC(c2ccccc2)CC2(CCN(Cc3ncc[nH]3)CC2)C1 (centres undefined) | 6.147 | 799 nM |
| Cc1cccc(CN2CCC(Cc3ccccc3F)CC2)n1 | 6.094 | 776 nM |
| CCN1CCN(C[C@@H]2CN(c3ncc(Cl)cc3F)C[C@@H]2CO)CC1 | 6.156 | 651 nM |

| Structure (SMILES) | pIC50 | IC50 |
| --- | --- | --- |
| CN[C@@H](C)C(=O)N(Cc1cccc(C)c1)Cc1ccccc1OC | 6.428 | 316 nM |
| CN(Cc1ccccc1-n1cccn1)C[C@@H]1CCCN2CCCC[C@H]12 | 6.129 | 852 nM |
| Cc1cc(-n2cccn2)ccc1CN1CCOCC(CN(C)C)C1 (centres undefined) | 6.139 | 673 nM |
| CC(C)CN1CCCC1c1ccc(C(=O)Nc2cccnc2)s1 (centres undefined) | 6.101 | 537 nM |
| CCN(CC)CCN(C)c1nc(-c2ccc(Cl)cc2)nc2c1CNC2 | 6.071 | 1020 nM |
| COc1cccc(CN(C)Cc2[nH]c3ccccc3c2C)c1O | 6.46 | 310 nM |
| CCc1ccc2nc(NCCCN(CCO)CCO)cc(C)c2c1 | 6.107 | 809 nM |
| CC1CN(Cc2ccccc2Cn2cccn2)CCN1C (centres undefined) | 6.079 | 1080 nM |
| CC(C)(C)n1cc(C2=CCN(CCN3CCCCCC3)CC2)cn1 | 5.987 | 994 nM |
| NC1(C(=O)NCC2CCCN(Cc3ccccc3F)C2)CCCC1 (centres undefined) | 6.224 | 470 nM |
| c1ccc(Oc2nccc3occc23)c(CN2CCCCC2)c1 | 6.272 | 735 nM |
| CC(C)[C@@H]1CN(C(=O)C2(c3ccccc3)CCN(C)CC2)C[C@H]1N(C)C | 6.113 | 710 nM |
| CCc1ccc(CN(CCN(C)C)Cc2ccc(C)s2)nc1 | 6.04 | 965 nM |
| CN1CCC(N(C)C[C@H]2CC[C@@H](Cc3ccc4occc4c3)O2)CC1 | 6.011 | 993 nM |
| Cc1cccc2[nH]c(-c3cn(C4CCNCC4)nn3)nc12 | 6.226 | 597 nM |
| CSc1ccc(-c2nc(CN3CCC(CN)C3)c(C)o2)cc1 (centres undefined) | 5.962 and 5.805 and 6.058 | 1020 nM |
| C=Cc1cccc(CN2C[C@@H](CN(C)CC)[C@@H](CO)C2)c1 | 5.976 | 1050 nM |
| O=C(c1scc2c1OCCO2)N1CCOC(CCc2ccccc2)C1 (centres undefined) | 6.32 | 386 nM |
| C[C@@H]1CN(C(=O)C2CCS(=O)(=O)CC2)CC[C@@]1(O)C1CCOCC1 | 6.055 | 998 nM |
| COc1ccccc1CCN1CCCC(CN(C)Cc2ccc(C)o2)C1 (centres undefined) | 5.915 | 1030 nM |
| CC(C)(C)CNCC1(O)CCCN(Cc2ccccc2F)C1=O (centres undefined) | 6.115 | 770 nM |
| COc1ccnc(CN2CCCC(CCc3ccccc3)C2)c1OC (centres undefined) | 5.985 | 1030 nM |
| Fc1ccccc1C1(CNC2CCOC3(CCOCC3)C2)CCCC1 (centres undefined) | 6.12 | 796 nM |

| Structure (SMILES) | pIC50 | IC50 |
| --- | --- | --- |
| NC1CCCCN(Cc2ccccc2CS(=O)(=O)c2ccccc2)C1 (centres undefined) | 6.25 | 568 nM |
| Cc1ccc(OC2(C(=O)N(C)Cc3ccoc3)CCNCC2)cc1 | 6.094 | 701 nM |
| Cn1cc(CN2CCCC(CCc3ccc(F)cc3F)C2)cn1 (centres undefined) | 5.983 | 992 nM |
| Cc1ccccc1CN(CCN(C)C)Cc1ccc(S(C)(=O)=O)cc1 | 5.997 | 890 nM |
| Cc1nccn1CCCN1CCCC(c2ccccc2)C1 (centres undefined) | 6.639 | 234 nM |
| OCc1csc(N2CCCC(COc3cccc(F)c3)C2)n1 (centres undefined) | 6.326 | 363 nM |
| CN(CCCO)Cc1cc(Cl)ccc1OCC(O)CN1CCCCCC1 (centres undefined) | 6.2 | 738 nM |
| CN1CCN(Cc2ccccc2Oc2nccc3occc23)CC1 | 6.2 | 593 nM |
| COc1cccc(OC)c1CN1CC(=O)N(c2ccc(C)cc2)CC1C (centres undefined) | 5.987 | 877 nM |
| COCCn1ccnc1CN(Cc1ccccn1)Cc1sccc1C | 6.065 | 650 nM |
| Cc1ccc(C2(CN(C)Cc3sccc3C)CCNCC2)nc1 | 6.117 | 515 nM |
| c1ccn2c(C3CCCN(c4ncnc5c4CCNC5)C3)nnc2c1 (centres undefined) | 6.629 | 213 nM |
| CN(CCO)C[C@@H]1CN(Cc2ccccc2-c2ccccc2)C[C@@H]1CO | 6.276 | 611 nM |
| Cc1ccc(C)c(OCCNC(=O)[C@@H]2CCCCN2)c1 | 6.461 | 362 nM |
| CN(C)c1nc2c(c(NCc3cc(O)ncn3)n1)CCCC2 | 6.202 | 643 nM |
| CCC[C@H]1CN(c2nc(CO)cs2)C[C@@H]1NC(=O)C1(COC)CC1 | 5.825 | 1600 nM |
| Cc1cc(S(=O)(=O)NCC2CNCCOC2)c(C)cc1Cl (centres undefined) | 5.962 | 990 nM |
| Cc1cc(F)ccc1N1CCC(N2C[C@@H](CN(C)C)[C@@H](CO)C2)CC1 | 6.511 | 314 nM |
| Cc1oc(-c2cc(F)cc(F)c2)nc1CN1C[C@@H](C)NC[C@@H]1C | 5.947 | 719 nM |
| CCc1ccc(C2c3nc[nH]c3CCN2Cc2nccn2CC)nc1 (centres undefined) | 6.077 | 819 nM |
| Nc1nc2c(c(N3CCCC(c4nnc5ccccn45)C3)n1)CCNC2 (centres undefined) | 6.831 | 144 nM |
| CC(C)(C)n1cc(C2=CCN(CCc3ccccn3)CC2)cn1 | 6.143 | 1030 nM |
| CNc1nc(C)cc(NC2CCCN(C3Cc4ccccc4C3)C2)n1 (centres undefined) | 6.114 | 968 nM |

| Structure (SMILES) | pIC50 | IC50 |
| --- | --- | --- |
| Cc1ccccc1N1CCCN(CC2(O)CCCNC2)CC1 (centres undefined) | 6.443 | 314 nM |
| CN(Cc1ncc[nH]1)c1nc(-c2ccccn2)nc2c1CCNCC2 | 6.511 | 292 nM |
| CN1CCC(C2CCN(Cc3cccc(-n4cccn4)c3)CC2)C1 (centres undefined) | 6.139 | 656 nM |
| Clc1cccc2c3c([nH]c12)CCN(Cc1cc2n(n1)CCCNC2)C3 | 6.194 | 965 nM |
| Cc1cccnc1CC(C)NC1Cc2ccccc2C1 (centres undefined) | 5.954 | 1290 nM |
| Cc1cc(CN(C)c2nc(-c3ccccn3)nc3c2CCNCC3)n[nH]1 | 5.981 | 1080 nM |
| Cc1cc2c(cc1CN1CCCCC1CCn1ccnc1C)OCO2 (centres undefined) | 6.025 | 1020 nM |
| O[C@H]1[C@H](n2cc(CN3CCCC3)nn2)c2ccccc2C12CCNCC2 | 7.12 | 64.7 nM |
| CO[C@H]1CN(C(C)C)C[C@@H]1NC(=O)c1cc(-c2ccccc2O)n[nH]1 | 6.125 | 891 nM |
| CC(C)n1ccnc1C1CCCN(c2ccnc3ccccc23)C1 (centres undefined) | 6.118 | 829 nM |
| CC(C)N1CCC(NCc2cccnc2N(C)Cc2ccccc2)CC1 | 6.416 | 447 nM |
| COc1cccc(CN2CCCC(Nc3cccc(F)c3)C2)c1O (centres undefined) | 6.314 | 810 nM |
| O=C(c1ccc(F)c(Cl)c1)N1C[C@@H]2CC[C@H](C1)N(Cc1ccccc1)C2 | 5.941 | 758 nM |
| Cc1cc(F)ccc1CN1CCC(O)(CN2CCCCC2)C1 (centres undefined) | 6.047 | 1750 nM |
| CCC1CN(C(=O)c2ccc(Cl)cc2O)CCN1C(C)C (centres undefined) | 5.81 | 1130 nM |
| CCn1ccnc1CN1CCCC(CO)(Cc2cccc(Cl)c2)C1 (centres undefined) | 6.076 | 575 nM |
| CN1CCCC(c2cccc(Cc3ccccc3Cl)n2)C1 (centres undefined) | 6.022 | 1020 nM |
| Cl.OC(CNCc1ccccc1C(F)(F)F)c1ccccc1 (centres undefined) | 6.179 | 709 nM |
| CC1(C)CC(N(Cc2ccccc2)Cc2cccnc2)CC(C)(C)N1.O=C(O)CC(O)(CC(=O)O)C(=O)O | 5.927 | 602 nM |
| Cc1ccc(CN(Cc2cccnc2)C2CC(C)(C)NC(C)(C)C2)s1.O=C(O)CC(O)(CC(=O)O)C(=O)O | 6.05 | 727 nM |
| Cc1ccc(CN(Cc2ccccn2)C2CC(C)(C)NC(C)(C)C2)s1.O=C(O)CC(O)(CC(=O)O)C(=O)O | 6.418 | 432 nM |
